Results from PMC6063846, “Matrine inhibits itching by lowering the activity of calcium channel” (Scientific Reports, 2018).

Target: T1, N-type calcium channel (Mus musculus, UniProt O55017)
T1 construct: gene Cacna1b
Type: cell-based

T1 sequence (O55017 whole entry): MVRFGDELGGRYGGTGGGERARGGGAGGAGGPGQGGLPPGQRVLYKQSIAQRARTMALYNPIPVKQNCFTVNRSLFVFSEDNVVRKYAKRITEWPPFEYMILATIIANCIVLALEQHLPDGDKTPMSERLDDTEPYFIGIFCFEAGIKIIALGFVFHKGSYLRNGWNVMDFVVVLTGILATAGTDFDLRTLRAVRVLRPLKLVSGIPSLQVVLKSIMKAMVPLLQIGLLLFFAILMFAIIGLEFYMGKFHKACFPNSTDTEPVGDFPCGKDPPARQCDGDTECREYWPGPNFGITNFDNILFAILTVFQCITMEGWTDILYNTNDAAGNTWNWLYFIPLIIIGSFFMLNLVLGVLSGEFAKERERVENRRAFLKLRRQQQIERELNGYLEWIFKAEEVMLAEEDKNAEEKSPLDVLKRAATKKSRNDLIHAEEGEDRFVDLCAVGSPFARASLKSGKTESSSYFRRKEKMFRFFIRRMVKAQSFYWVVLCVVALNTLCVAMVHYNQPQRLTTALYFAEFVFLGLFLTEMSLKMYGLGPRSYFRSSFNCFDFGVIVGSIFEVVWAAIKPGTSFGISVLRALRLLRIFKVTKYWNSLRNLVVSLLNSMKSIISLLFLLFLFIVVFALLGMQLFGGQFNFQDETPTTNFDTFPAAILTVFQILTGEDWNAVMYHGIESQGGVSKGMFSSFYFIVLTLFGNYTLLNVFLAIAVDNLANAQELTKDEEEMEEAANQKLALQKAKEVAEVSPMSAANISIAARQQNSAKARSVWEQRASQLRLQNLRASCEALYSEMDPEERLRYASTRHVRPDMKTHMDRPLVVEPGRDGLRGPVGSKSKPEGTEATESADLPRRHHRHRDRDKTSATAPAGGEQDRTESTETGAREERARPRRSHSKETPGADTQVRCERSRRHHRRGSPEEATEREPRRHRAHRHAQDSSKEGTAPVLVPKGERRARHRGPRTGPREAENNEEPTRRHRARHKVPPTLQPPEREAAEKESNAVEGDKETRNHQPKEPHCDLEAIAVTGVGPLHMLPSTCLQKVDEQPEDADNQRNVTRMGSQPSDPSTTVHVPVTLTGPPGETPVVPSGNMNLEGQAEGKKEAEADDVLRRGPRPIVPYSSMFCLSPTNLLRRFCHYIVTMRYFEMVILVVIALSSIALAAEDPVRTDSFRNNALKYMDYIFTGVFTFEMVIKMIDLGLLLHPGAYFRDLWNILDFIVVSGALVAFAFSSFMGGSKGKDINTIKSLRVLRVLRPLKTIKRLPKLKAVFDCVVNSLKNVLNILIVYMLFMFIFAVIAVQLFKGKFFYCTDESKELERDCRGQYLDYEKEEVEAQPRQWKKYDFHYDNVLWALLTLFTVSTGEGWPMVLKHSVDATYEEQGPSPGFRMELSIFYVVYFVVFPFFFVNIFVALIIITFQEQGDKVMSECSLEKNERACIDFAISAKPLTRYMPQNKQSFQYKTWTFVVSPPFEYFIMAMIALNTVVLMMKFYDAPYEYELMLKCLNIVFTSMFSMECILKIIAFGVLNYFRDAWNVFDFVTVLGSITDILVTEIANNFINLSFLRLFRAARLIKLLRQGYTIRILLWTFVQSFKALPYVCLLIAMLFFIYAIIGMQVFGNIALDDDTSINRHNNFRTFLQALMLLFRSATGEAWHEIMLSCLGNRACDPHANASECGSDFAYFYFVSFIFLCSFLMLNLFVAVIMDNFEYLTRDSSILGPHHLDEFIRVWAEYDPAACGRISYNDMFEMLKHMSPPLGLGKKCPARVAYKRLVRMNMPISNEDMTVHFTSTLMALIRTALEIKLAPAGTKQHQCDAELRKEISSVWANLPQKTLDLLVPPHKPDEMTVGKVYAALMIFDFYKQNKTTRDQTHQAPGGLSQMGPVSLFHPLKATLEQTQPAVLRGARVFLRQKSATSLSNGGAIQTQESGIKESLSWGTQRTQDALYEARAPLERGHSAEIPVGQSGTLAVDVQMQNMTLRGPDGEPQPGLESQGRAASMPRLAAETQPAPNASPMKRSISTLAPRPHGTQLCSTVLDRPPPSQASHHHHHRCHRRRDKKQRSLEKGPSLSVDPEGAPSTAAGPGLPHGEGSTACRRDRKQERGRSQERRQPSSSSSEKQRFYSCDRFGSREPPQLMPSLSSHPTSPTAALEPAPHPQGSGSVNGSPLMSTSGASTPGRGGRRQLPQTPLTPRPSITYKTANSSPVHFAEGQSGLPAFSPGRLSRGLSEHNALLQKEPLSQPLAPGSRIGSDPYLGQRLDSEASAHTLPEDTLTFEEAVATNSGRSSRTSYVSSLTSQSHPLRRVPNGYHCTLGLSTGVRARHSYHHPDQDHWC

## O=C1CCC[C@@H]2[C@H]3CCCN4CCC[C@@H](CN12)[C@@H]34 [MT, Matrine]
  whole-cell patch clamp of HVA Ca2+ currents in native mouse DRG neurons, occlusi: the inhibitory effect of MT on HVA Ica current is mainly by inhibiting the N-type calcium channel
